{"source": "patent US12459918B2", "about": "“Isoquinolinone derivatives serving as rock protein kinase inhibitors and use thereof” (GUANGZHOU OCUSUN OPHTHALMIC BIOTECHNOLOGY CO., LTD., priority 2019, dated 2025)", "key": {"[1]": {"tested_on": "New Zealand rabbits with normal intraocular pressure", "assay": "Repeated eye-drop administration for 14 days, experiment operation 2: Day 1 intraocular pressure", "format": "in vivo", "settings": "Day 1; for Mean intraocular pressure of both eyes: 4 mg/mL in right eye, saline in left; for Change of intraocular pressure: 4 mg/mL, group minus negative control", "text": "(§1) Experimental example 4. Experiment on reduction of intraocular pressure and ocular toxicity of New Zealand rabbits with normal intraocular pressure by repeated eye-drop administration for 14 days\n(§2) The intraocular pressure reduction action and the potential ocular toxicity of compound 63 were explored by 14 days of repeated eye-drop administration in rabbits with normal intraocular pressure.\n(§3) Male New Zealand rabbits, aged 97-127 days, weighted 2.6-3.5 kg, purchased from PizhouDongfang Breeding Co. Ltd.\n42 male New Zealand rabbits were randomly divided into 7 groups, with 6 rabbits per group. Animals were randomly divided according to body weight Animals in 1-7 groups were eye-dropped with normal saline in the left eye and with solvent/control sample/test sample in the right eye respectively by a volume of 50 μL/eye, once per day for 14 consecutive days, and the day of administration was recorded as Day 1. The intraocular pressure of the animals was measured before Day 1 administration and in 1, 2, 4, 6, 8 and 10 hours after Day 1 administration, respectively (Table 8)."}, "[2]": {"tested_on": "New Zealand rabbits with normal intraocular pressure", "assay": "Reduction of intraocular pressure by repeated eye-drop administration for 14 days, experiment operation 1", "format": "in vivo", "settings": "for Change of intraocular pressure: negative control minus group", "text": "as §1, §2, §3\nThe male New Zealand rabbits were randomly divided into 7 groups, with 6 rabbits per group. Animals were randomly divided according to body weight Animals in 1-7 groups were eye-dropped with solvent/control sample/test sample in both eyes, the volume of the administration was all 50 μL/eye, once per day for 14 consecutive days, and the day of the administration was recorded as Day 1. On Day 1, intraocular pressure of the animals was measured before the administration and in 1, 2, 4, 6, 8 and 10 hours after the administration, respectively; on Days 2-14, intraocular pressure of the animals was measured in 1 hour after daily administration for the group administered with K-115, and intraocular pressure of the animal was measured in 4 hours after daily administration for the other groups."}, "[3]": {"settings": "4 mg/mL once per day, Day 2, 1 hour after daily administration"}, "[4]": {"settings": "4 mg/mL once per day, Day 3, 1 hour after daily administration"}, "[5]": {"settings": "4 mg/mL once per day, Day 4, 1 hour after daily administration"}, "[6]": {"settings": "4 mg/mL once per day, Day 5, 1 hour after daily administration"}, "[7]": {"settings": "4 mg/mL once per day, Day 6, 1 hour after daily administration"}, "[8]": {"settings": "4 mg/mL once per day, Day 7, 1 hour after daily administration"}, "[9]": {"settings": "4 mg/mL once per day, Day 8, 1 hour after daily administration"}, "[10]": {"settings": "4 mg/mL once per day, Day 9, 1 hour after daily administration"}, "[11]": {"settings": "4 mg/mL once per day, Day 10, 1 hour after daily administration"}, "[12]": {"settings": "4 mg/mL once per day, Day 11, 1 hour after daily administration"}, "[13]": {"settings": "4 mg/mL once per day, Day 12, 1 hour after daily administration"}, "[14]": {"settings": "4 mg/mL once per day, Day 13, 1 hour after daily administration"}, "[15]": {"settings": "4 mg/mL once per day, Day 14, 1 hour after daily administration"}}, "data": [{"smiles": "C[C@H]1CNCCCN1S(=O)(=O)c1cccc2cncc(F)c12", "note": "[Compound K-115, reference compound]", "values": [{"measurement": "Mean intraocular pressure of both eyes", "setting": "[1]; 1 hour after administration", "result": 5.50, "unit": "mmHg"}, {"measurement": "Mean intraocular pressure of both eyes", "setting": "[1]; 2 hours after administration", "result": 7.06, "unit": "mmHg"}, {"measurement": "Mean intraocular pressure of both eyes", "setting": "[1]; 4 hours after administration", "result": 9.00, "unit": "mmHg"}, {"measurement": "Mean intraocular pressure of both eyes", "setting": "[1]; 6 hours after administration", "result": 9.17, "unit": "mmHg"}, {"measurement": "Mean intraocular pressure of both eyes", "setting": "[1]; 8 hours after administration", "result": 10.61, "unit": "mmHg"}, {"measurement": "Mean intraocular pressure of both eyes", "setting": "[1]; 10 hours after administration", "result": 12.33, "unit": "mmHg"}, {"measurement": "Mean intraocular pressure of both eyes", "setting": "[1]; before administration", "result": 10.17, "unit": "mmHg"}, {"measurement": "Change of intraocular pressure", "setting": "[1]; 1 hour after administration", "result": "−3.39", "unit": "mmHg"}, {"measurement": "Change of intraocular pressure", "setting": "[1]; 2 hours after administration", "result": "−2.50", "unit": "mmHg"}, {"measurement": "Change of intraocular pressure", "setting": "[1]; 4 hours after administration", "result": "−0.89", "unit": "mmHg"}, {"measurement": "Change of intraocular pressure", "setting": "[1]; 6 hours after administration", "result": "−1.61", "unit": "mmHg"}, {"measurement": "Change of intraocular pressure", "setting": "[1]; 8 hours after administration", "result": 0.23, "unit": "mmHg"}, {"measurement": "Change of intraocular pressure", "setting": "[1]; 10 hours after administration", "result": 0.17, "unit": "mmHg"}, {"measurement": "Change of intraocular pressure", "setting": "[1]; before administration", "result": 0.83, "unit": "mmHg"}, {"measurement": "Mean intraocular pressure of both eyes", "setting": "[2]; 4 mg/mL both eyes, Day 1, 1 hour after administration", "result": 7.72, "unit": "mmHg"}, {"measurement": "Mean intraocular pressure of both eyes", "setting": "[2]; 4 mg/mL both eyes, Day 1, 2 hours after administration", "result": 9.00, "unit": "mmHg"}, {"measurement": "Mean intraocular pressure of both eyes", "setting": "[2]; 4 mg/mL both eyes, Day 1, 4 hours after administration", "result": 9.67, "unit": "mmHg"}, {"measurement": "Mean intraocular pressure of both eyes", "setting": "[2]; 4 mg/mL both eyes, Day 1, 6 hours after administration", "result": 10.56, "unit": "mmHg"}, {"measurement": "Mean intraocular pressure of both eyes", "setting": "[2]; 4 mg/mL both eyes, Day 1, 8 hours after administration", "result": 10.28, "unit": "mmHg"}, {"measurement": "Mean intraocular pressure of both eyes", "setting": "[2]; 4 mg/mL both eyes, Day 1, 10 hours after administration", "result": 12.81, "unit": "mmHg"}, {"measurement": "Mean intraocular pressure of both eyes", "setting": "[2]; 4 mg/mL both eyes, Day 1, before administration", "result": 10.83, "unit": "mmHg"}, {"measurement": "Mean intraocular pressure of both eyes", "setting": "[2]; [3]", "result": 6.83, "unit": "mmHg"}, {"measurement": "Change of intraocular pressure", "setting": "[2]; [3]", "result": 4.25, "unit": "mmHg"}, {"measurement": "Mean intraocular pressure of both eyes", "setting": "[2]; [4]", "result": 6.81, "unit": "mmHg"}, {"measurement": "Change of intraocular pressure", "setting": "[2]; [4]", "result": 3.58, "unit": "mmHg"}, {"measurement": "Mean intraocular pressure of both eyes", "setting": "[2]; [5]", "result": 6.92, "unit": "mmHg"}, {"measurement": "Change of intraocular pressure", "setting": "[2]; [5]", "result": 3.69, "unit": "mmHg"}, {"measurement": "Mean intraocular pressure of both eyes", "setting": "[2]; [6]", "result": 6.67, "unit": "mmHg"}, {"measurement": "Change of intraocular pressure", "setting": "[2]; [6]", "result": 4.3, "unit": "mmHg"}, {"measurement": "Mean intraocular pressure of both eyes", "setting": "[2]; [7]", "result": 6.75, "unit": "mmHg"}, {"measurement": "Change of intraocular pressure", "setting": "[2]; [7]", "result": 2.56, "unit": "mmHg"}, {"measurement": "Mean intraocular pressure of both eyes", "setting": "[2]; [8]", "result": 7.39, "unit": "mmHg"}, {"measurement": "Change of intraocular pressure", "setting": "[2]; [8]", "result": 2.67, "unit": "mmHg"}, {"measurement": "Mean intraocular pressure of both eyes", "setting": "[2]; [9]", "result": 7.53, "unit": "mmHg"}, {"measurement": "Change of intraocular pressure", "setting": "[2]; [9]", "result": 3.78, "unit": "mmHg"}, {"measurement": "Mean intraocular pressure of both eyes", "setting": "[2]; [10]", "result": 7.78, "unit": "mmHg"}, {"measurement": "Change of intraocular pressure", "setting": "[2]; [10]", "result": 1.66, "unit": "mmHg"}, {"measurement": "Mean intraocular pressure of both eyes", "setting": "[2]; [11]", "result": 7.94, "unit": "mmHg"}, {"measurement": "Change of intraocular pressure", "setting": "[2]; [11]", "result": 1.81, "unit": "mmHg"}, {"measurement": "Mean intraocular pressure of both eyes", "setting": "[2]; [12]", "result": 7.94, "unit": "mmHg"}, {"measurement": "Change of intraocular pressure", "setting": "[2]; [12]", "result": 1.75, "unit": "mmHg"}, {"measurement": "Mean intraocular pressure of both eyes", "setting": "[2]; [13]", "result": 7.89, "unit": "mmHg"}, {"measurement": "Change of intraocular pressure", "setting": "[2]; [13]", "result": 1.64, "unit": "mmHg"}, {"measurement": "Mean intraocular pressure of both eyes", "setting": "[2]; [14]", "result": 8.25, "unit": "mmHg"}, {"measurement": "Change of intraocular pressure", "setting": "[2]; [14]", "result": 3.14, "unit": "mmHg"}, {"measurement": "Mean intraocular pressure of both eyes", "setting": "[2]; [15]", "result": 8.50, "unit": "mmHg"}, {"measurement": "Change of intraocular pressure", "setting": "[2]; [15]", "result": 2.47, "unit": "mmHg"}, {"measurement": "Change of intraocular pressure", "setting": "[2]; 4 mg/mL, Day 1, 1 hour after administration", "result": 2.59, "unit": "mmHg"}, {"measurement": "Change of intraocular pressure", "setting": "[2]; 4 mg/mL, Day 1, 2 hours after administration", "result": 1.97, "unit": "mmHg"}, {"measurement": "Change of intraocular pressure", "setting": "[2]; 4 mg/mL, Day 1, 4 hours after administration", "result": 1.64, "unit": "mmHg"}, {"measurement": "Change of intraocular pressure", "setting": "[2]; 4 mg/mL, Day 1, 6 hours after administration", "result": 1.38, "unit": "mmHg"}, {"measurement": "Change of intraocular pressure", "setting": "[2]; 4 mg/mL, Day 1, 8 hours after administration", "result": 2.69, "unit": "mmHg"}, {"measurement": "Change of intraocular pressure", "setting": "[2]; 4 mg/mL, Day 1, 10 hours after administration", "result": 1.61, "unit": "mmHg"}, {"measurement": "Change of intraocular pressure", "setting": "[2]; 4 mg/mL, Day 1, before administration", "result": "−0.94", "unit": "mmHg"}]}]}
